Experiments:
[1] = molecular target: Tyrosine-protein kinase ABL1 (Homo sapiens, UniProt P00519); test: Selectivity interaction (ActivX KiNativ screen (kinase selectivity in THP-1 cell lysates)) EUB0000639a ABL1; assay type: subcellular; conditions: lysate, at 1 µM
[2] = molecular target: Tyrosine-protein kinase Lyn (Homo sapiens, UniProt P07948); test: Selectivity interaction (KinomeScan (DiscoverX)) EUB0000695a LYN; conditions: at 100 nM
[3] = molecular target: T1, Dual specificity mitogen-activated protein kinase kinase 4 (Homo sapiens) (UniProt P45985); test: Selectivity interaction (Kinase panel (DSF assay)) EUB0001558a MAP2K4
T1 sequence (whole entry): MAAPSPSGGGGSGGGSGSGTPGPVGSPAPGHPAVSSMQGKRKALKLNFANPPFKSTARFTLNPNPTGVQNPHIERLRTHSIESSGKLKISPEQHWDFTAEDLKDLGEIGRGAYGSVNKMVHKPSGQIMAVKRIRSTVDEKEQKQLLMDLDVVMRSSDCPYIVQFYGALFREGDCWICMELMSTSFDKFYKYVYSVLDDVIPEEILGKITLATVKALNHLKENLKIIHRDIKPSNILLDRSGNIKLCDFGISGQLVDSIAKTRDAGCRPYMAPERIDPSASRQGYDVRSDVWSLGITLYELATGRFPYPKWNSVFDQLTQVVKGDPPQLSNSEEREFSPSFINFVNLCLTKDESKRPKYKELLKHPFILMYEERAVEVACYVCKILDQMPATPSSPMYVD

[4] = molecular target: T2, Serine/threonine-protein kinase 36 (Homo sapiens) (UniProt Q9NRP7); test: Selectivity interaction (KinomeScan (DiscoverX)) EUB0000655a STK36; conditions: at 10 µM
T2 sequence (whole entry): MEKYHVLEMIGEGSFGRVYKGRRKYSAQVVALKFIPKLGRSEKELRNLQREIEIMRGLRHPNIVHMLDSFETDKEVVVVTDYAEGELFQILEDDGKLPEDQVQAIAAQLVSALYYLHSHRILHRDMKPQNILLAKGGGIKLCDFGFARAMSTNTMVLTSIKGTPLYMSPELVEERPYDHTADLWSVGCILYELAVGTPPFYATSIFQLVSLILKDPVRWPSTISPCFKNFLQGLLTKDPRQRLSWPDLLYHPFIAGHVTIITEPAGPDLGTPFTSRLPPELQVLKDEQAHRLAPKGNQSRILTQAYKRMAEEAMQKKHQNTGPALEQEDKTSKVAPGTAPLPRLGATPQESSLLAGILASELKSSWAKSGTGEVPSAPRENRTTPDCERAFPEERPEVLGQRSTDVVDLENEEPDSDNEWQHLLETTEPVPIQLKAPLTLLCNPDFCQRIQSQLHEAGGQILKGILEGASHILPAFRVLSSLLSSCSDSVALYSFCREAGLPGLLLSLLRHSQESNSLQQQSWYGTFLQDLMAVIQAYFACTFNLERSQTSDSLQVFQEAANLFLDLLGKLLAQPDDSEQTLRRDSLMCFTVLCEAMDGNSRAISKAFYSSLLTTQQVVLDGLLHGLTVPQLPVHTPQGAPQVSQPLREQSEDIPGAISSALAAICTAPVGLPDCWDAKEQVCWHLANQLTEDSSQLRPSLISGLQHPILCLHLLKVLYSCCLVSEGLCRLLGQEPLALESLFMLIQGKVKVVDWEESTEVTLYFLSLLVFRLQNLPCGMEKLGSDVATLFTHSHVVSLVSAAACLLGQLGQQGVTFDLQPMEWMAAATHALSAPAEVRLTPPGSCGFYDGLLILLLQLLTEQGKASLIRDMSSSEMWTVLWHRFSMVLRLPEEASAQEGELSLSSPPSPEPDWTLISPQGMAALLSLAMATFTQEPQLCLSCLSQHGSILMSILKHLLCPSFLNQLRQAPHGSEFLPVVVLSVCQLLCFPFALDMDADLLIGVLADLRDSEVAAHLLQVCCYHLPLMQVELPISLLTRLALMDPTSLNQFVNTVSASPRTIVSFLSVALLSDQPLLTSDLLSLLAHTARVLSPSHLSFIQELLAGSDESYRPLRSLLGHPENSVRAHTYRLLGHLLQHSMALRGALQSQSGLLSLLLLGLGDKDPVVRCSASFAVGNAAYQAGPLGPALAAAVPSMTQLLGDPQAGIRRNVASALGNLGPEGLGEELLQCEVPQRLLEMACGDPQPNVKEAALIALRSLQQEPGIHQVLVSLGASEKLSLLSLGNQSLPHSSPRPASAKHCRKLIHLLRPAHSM

[5] = system: Fibroblast growth factor receptor 3 (Homo sapiens), P22607 [G697C]; test: (§1) Selectivity interaction (KinomeScan (DiscoverX)) EUB0000045b FGFR3
[6] = molecular target: Fibroblast growth factor receptor 3 (Homo sapiens, UniProt P22607); test: as §1
[7] = molecular target: T3, Phosphatidylinositol 5-phosphate 4-kinase type-2 beta (Homo sapiens) (UniProt P78356); test: Selectivity interaction (KinomeScan (DiscoverX)) EUB0000618a PIP4K2B; conditions: at 10 µM
T3 sequence (whole entry): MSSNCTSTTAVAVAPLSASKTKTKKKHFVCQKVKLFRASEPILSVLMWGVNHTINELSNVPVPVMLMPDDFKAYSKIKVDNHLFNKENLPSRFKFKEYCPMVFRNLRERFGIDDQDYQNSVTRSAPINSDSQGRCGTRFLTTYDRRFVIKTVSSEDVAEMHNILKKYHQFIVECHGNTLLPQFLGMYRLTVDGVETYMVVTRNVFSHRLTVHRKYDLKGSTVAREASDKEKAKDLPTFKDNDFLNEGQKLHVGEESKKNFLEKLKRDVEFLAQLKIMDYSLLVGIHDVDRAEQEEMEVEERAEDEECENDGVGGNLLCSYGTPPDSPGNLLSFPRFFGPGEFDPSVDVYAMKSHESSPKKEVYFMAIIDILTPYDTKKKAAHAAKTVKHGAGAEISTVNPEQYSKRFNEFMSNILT

[8] = molecular target: eIF-2-alpha kinase GCN2 (Homo sapiens) (UniProt Q9P2K8); test: Selectivity interaction (ActivX KiNativ screen (ex vivo kinase selectivity in human PBMCs)) EUB0001619a EIF2AK4; assay type: cell-based; conditions: PBMC, at 1 µM
eIF-2-alpha kinase GCN2 (Homo sapiens), sequence (Q9P2K8 whole entry): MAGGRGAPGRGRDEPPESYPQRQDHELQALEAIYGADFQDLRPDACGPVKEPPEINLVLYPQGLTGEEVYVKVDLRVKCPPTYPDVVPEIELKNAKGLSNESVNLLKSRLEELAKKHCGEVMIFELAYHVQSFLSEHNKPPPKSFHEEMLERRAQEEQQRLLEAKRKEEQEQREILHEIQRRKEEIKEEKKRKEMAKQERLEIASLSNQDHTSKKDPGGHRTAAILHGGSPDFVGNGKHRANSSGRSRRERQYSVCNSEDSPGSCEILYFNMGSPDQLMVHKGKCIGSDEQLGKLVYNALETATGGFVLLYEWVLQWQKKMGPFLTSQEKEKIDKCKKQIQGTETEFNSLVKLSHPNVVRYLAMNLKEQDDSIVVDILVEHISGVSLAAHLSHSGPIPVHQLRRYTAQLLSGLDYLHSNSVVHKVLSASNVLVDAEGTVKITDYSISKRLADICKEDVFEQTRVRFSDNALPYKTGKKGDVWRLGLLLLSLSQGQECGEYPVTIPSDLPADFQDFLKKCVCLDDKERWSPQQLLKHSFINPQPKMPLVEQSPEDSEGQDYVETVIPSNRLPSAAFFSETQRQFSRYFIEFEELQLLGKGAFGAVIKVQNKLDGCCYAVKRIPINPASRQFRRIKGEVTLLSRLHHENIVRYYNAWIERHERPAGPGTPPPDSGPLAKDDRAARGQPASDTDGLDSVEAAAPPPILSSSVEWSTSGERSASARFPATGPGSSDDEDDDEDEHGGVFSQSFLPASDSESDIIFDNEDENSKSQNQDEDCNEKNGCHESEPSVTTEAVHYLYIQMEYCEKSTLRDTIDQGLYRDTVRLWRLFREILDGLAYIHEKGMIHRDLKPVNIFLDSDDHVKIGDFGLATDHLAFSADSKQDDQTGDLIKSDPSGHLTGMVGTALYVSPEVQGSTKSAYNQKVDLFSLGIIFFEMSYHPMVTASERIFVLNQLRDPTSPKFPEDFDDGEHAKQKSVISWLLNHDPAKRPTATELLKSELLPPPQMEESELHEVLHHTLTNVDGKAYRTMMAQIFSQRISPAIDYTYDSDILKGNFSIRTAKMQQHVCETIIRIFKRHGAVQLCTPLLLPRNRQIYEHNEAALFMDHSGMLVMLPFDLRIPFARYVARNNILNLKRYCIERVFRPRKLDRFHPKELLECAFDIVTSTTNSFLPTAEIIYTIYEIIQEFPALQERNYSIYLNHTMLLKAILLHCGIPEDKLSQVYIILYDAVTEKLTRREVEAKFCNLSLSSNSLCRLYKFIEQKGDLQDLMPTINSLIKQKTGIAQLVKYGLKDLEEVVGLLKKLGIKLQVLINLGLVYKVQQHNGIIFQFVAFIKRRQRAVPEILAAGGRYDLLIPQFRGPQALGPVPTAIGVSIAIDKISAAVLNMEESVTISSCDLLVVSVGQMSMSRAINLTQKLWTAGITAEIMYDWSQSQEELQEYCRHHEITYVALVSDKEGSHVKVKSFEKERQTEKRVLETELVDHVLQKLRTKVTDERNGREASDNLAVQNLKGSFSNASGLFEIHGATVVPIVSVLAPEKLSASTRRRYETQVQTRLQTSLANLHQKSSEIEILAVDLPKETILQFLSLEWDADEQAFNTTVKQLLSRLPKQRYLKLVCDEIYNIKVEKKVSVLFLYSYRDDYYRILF

Fibroblast growth factor receptor 3 (Homo sapiens), P22607 [G697C], sequence (P22607 whole entry G697C): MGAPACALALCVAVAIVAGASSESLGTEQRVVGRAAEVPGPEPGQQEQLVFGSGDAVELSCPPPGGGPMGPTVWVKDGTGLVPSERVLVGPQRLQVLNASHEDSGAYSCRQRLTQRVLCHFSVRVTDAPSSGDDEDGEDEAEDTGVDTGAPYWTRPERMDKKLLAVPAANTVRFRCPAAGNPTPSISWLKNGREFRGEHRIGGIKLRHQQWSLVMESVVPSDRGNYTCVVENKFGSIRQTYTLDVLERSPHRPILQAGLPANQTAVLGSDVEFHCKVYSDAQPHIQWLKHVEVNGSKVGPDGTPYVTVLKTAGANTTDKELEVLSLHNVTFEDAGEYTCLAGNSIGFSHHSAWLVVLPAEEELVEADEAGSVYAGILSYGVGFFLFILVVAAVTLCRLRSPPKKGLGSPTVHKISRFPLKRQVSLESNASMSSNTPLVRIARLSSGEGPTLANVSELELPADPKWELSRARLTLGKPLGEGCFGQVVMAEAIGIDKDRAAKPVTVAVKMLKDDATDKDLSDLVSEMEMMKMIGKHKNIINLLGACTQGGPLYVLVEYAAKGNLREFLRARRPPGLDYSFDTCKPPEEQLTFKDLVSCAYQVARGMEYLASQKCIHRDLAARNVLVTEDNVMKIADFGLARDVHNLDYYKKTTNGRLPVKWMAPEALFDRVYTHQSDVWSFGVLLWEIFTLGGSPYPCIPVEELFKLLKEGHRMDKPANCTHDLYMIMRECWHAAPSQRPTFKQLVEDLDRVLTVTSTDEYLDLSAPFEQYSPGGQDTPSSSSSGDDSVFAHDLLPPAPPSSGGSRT
Fibroblast growth factor receptor 3, sequence (P22607 23-806 limits assumed): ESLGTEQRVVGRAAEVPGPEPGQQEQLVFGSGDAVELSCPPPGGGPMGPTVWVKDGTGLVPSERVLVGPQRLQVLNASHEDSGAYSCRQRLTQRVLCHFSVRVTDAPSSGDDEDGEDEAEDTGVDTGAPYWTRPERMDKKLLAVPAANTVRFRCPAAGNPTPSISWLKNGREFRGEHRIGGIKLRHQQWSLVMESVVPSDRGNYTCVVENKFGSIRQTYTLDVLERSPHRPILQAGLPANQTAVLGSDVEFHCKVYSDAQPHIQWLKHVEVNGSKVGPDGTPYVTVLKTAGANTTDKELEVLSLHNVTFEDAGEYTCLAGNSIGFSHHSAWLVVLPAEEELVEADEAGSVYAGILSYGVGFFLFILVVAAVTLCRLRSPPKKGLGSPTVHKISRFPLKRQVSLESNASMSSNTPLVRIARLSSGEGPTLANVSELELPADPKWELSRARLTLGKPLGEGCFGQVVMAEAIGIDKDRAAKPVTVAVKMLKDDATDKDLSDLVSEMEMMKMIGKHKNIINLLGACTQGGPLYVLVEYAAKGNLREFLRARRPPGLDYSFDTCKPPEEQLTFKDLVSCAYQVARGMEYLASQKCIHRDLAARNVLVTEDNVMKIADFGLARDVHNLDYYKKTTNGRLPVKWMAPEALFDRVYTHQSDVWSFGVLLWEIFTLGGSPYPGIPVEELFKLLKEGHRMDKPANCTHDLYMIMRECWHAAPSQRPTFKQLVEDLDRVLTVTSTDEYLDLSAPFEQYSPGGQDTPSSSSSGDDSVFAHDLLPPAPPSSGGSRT
Tyrosine-protein kinase Lyn, sequence (P07948 2-512 limits assumed): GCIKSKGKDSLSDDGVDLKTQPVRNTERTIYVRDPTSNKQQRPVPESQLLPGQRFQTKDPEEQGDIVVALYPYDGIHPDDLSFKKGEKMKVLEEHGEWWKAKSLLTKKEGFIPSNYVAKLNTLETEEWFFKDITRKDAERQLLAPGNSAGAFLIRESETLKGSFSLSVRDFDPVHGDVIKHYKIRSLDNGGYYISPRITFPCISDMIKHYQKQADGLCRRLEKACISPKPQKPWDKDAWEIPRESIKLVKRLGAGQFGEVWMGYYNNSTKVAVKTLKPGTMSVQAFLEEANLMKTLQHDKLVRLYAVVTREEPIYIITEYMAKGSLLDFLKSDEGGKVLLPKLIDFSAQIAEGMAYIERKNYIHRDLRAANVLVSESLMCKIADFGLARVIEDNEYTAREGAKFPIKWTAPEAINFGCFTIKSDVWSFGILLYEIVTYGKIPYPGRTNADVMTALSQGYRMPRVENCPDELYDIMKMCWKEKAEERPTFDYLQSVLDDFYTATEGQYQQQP
Tyrosine-protein kinase ABL1, sequence (P00519 whole entry): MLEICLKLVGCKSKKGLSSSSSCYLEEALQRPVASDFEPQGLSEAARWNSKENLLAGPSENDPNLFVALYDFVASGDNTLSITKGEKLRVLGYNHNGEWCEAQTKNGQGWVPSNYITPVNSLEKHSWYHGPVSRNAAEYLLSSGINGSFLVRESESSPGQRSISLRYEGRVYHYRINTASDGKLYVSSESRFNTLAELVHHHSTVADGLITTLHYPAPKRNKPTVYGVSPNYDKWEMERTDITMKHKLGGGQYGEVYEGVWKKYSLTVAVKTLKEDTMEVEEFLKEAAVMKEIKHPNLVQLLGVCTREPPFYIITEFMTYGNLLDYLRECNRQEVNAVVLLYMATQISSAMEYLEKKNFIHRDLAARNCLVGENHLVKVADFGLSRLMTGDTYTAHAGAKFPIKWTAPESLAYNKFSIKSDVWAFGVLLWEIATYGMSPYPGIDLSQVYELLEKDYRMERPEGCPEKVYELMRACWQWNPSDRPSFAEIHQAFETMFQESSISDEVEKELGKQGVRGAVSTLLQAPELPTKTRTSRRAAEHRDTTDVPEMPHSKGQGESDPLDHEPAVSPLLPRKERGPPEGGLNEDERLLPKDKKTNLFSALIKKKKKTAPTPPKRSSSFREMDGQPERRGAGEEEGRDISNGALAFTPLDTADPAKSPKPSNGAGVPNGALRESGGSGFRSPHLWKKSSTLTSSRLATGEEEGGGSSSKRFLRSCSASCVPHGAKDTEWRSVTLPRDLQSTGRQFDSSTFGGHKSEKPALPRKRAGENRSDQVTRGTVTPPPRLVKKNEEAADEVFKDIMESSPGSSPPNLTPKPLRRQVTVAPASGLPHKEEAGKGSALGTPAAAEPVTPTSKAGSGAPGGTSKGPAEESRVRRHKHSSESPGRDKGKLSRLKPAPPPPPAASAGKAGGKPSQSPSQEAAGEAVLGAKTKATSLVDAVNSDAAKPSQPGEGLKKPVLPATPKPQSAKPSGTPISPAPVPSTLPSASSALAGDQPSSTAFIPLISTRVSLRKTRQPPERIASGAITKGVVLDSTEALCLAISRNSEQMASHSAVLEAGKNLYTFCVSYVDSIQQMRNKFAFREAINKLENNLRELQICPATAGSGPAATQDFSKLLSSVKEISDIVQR

CC[C@@H]1[C@H](F)C(=O)N[C@@H]1COc1nccc2cc(C(N)=O)c(OC)cc12 [ZIMLOVISERTIB]
% of inhibition [1]: -13.2%

Cc1cc(F)c(C(=O)Nc2cccc(-c3nncn3C(C)C)n2)cc1-n1cnc(C2CC2)c1
% of control [2]: 100%

CC(C)(O)[C@H](F)CN1Cc2cc(NC(=O)c3cnn4cccnc34)c(N3CCOCC3)cc2C1=O
dTM [3]: 0.9 K

CN(C)CCOc1ccc(-c2nc(-c3ccncc3)c(-c3ccc4c(c3)CC/C4=N\O)[nH]2)cc1
% of control [4]: 35%

C=CC(=O)Nc1cc(-n2c(=O)ccc3cnc4ccc(-c5ccc(NS(C)(=O)=O)cc5)cc4c32)ccc1C
% of control ([5]; at 1 µM): 26%
% of control ([5]; at 10 µM): 96%
% of control ([6]; at 1 µM): 100%
% of control ([6]; at 10 µM): 100%

O[C@H]1CC[C@H](Nc2ncc3nc(Nc4c(F)cc(F)cc4F)n([C@H]4CCOC4)c3n2)CC1
% of control [7]: 98%

N#Cc1cccc(-c2c[nH]c3ncnc(N4CCOCC4)c23)c1
% of inhibition [8]: 22%

Source: ChEMBL document CHEMBL5465560, “Selectivity Literature for EUbOPEN Chemogenomic Library” (2024)
